PubChem BioAssay AID248 (DTP/NCI, 2004)
Where “and” joins values, the source holds several entries; their conditions need not be identical. Identical values can stand only once. Toxic doses and inconclusive results are not listed. Cut-off read from the data, not from the text of the source: active = T/C of 150% or more; inactive = T/C below 125%.

Test system: L1210 leukemia ip in BDF1 mice, survival T/C
Experiment: NCI In Vivo Anticancer Drug Screen. Data for tumor model L1210 Leukemia (intraperitoneal) in B6D2F1 (BDF1) mice
Details: endpoint: mean survival time, higher = longer survival
Procedure, shortened: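 Tumor cells were implanted, animals were treated, and survival was followed. The result divides the treated measurement by the vehicle-control measurement.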

[1] = dose: 100.0 mg/kg/injection, schedule: Q01DX001 (ip), vehicle: Klucel (hydroxypropylcellulose) (HPC)
[2] = dose: 200.0 mg/kg/injection, schedule: Q01DX001 (ip), vehicle: Klucel (hydroxypropylcellulose) (HPC)
[3] = dose: 400.0 mg/kg/injection, schedule: Q01DX001 (ip), vehicle: Klucel (hydroxypropylcellulose) (HPC)
[4] = dose: 100.0 mg/kg/injection, schedule: Q04DX003 (ip), vehicle: Klucel (hydroxypropylcellulose) (HPC)
[5] = dose: 200.0 mg/kg/injection, schedule: Q04DX003 (ip), vehicle: Klucel (hydroxypropylcellulose) (HPC)
[6] = dose: 400.0 mg/kg/injection, schedule: Q04DX003 (ip), vehicle: Klucel (hydroxypropylcellulose) (HPC)
[7] = dose: 100.0 mg/kg/injection, schedule: Q01DX009 (ip), vehicle: Klucel (hydroxypropylcellulose) (HPC)
[8] = dose: 200.0 mg/kg/injection, schedule: Q01DX009 (ip), vehicle: Klucel (hydroxypropylcellulose) (HPC)
[9] = dose: 400.0 mg/kg/injection, schedule: Q01DX009 (ip), vehicle: Klucel (hydroxypropylcellulose) (HPC)
[10] = dose: 100.0 mg/kg/injection, schedule: Q01DX009 (ip), vehicle: saline with Tween-80
[11] = dose: 200.0 mg/kg/injection, schedule: Q01DX009 (ip), vehicle: saline with Tween-80
[12] = dose: 100.0 mg/kg/injection, schedule: Q01DX001 (ip), vehicle: saline
[13] = dose: 200.0 mg/kg/injection, schedule: Q01DX001 (ip), vehicle: saline
[14] = dose: 400.0 mg/kg/injection, schedule: Q01DX001 (ip), vehicle: saline

Measured: T/C

CC(=O)c1cccc(OC(=O)Nc2ccc(Cl)cc2)c1
inactive: dose: 100.0 mg/kg/injection, schedule: Q01DX001 (ip), vehicle: carboxymethylcellulose (CMC) 89 % of control | dose: 100.0 mg/kg/injection, schedule: Q01DX009 (ip), vehicle: carboxymethylcellulose (CMC) 101 % of control and 102 % of control | dose: 100.0 mg/kg/injection, schedule: Q04DX003 (ip), vehicle: carboxymethylcellulose (CMC) 92 % of control and 90 % of control | dose: 200.0 mg/kg/injection, schedule: Q01DX001 (ip), vehicle: carboxymethylcellulose (CMC) 94 % of control | dose: 200.0 mg/kg/injection, schedule: Q01DX009 (ip), vehicle: carboxymethylcellulose (CMC) 98 % of control and 90 % of control | dose: 200.0 mg/kg/injection, schedule: Q04DX003 (ip), vehicle: carboxymethylcellulose (CMC) 95 % of control and 97 % of control | dose: 400.0 mg/kg/injection, schedule: Q01DX001 (ip), vehicle: carboxymethylcellulose (CMC) 89 % of control | dose: 400.0 mg/kg/injection, schedule: Q01DX009 (ip), vehicle: carboxymethylcellulose (CMC) 98 % of control and 88 % of control | dose: 400.0 mg/kg/injection, schedule: Q04DX003 (ip), vehicle: carboxymethylcellulose (CMC) 90 % of control

Cc1c2ccc3ccccc3c2cc2cccc(C#N)c12
inactive: [1] 106 % of control | [2] 98 % of control | [3] 98 % of control

CC(=O)OCC1OC(n2cnc(C(N)=O)c2N)C(OC(C)=O)C1OC(C)=O (centres undefined)
inactive: dose: 100.0 mg/kg/injection, schedule: Q01DX005 (ip), vehicle: saline 95 % of control | dose: 200.0 mg/kg/injection, schedule: Q01DX005 (ip), vehicle: saline 96 % of control

S=C([S][Sn]([c]1ccccc1)([c]1ccccc1)[c]1ccccc1)N1CCOCC1
inactive: [4] 100 % of control | [5] 96 % of control | [6] 94 % of control

CCCCCCCCC(=O)NCc1ccco1
inactive: [7] 92 % of control | [8] 91 % of control | [9] 94 % of control

O=C(CNC(=O)Nc1ccc(Cl)c(Cl)c1)N/N=C/c1ccccc1F
inactive: dose: 50.0 mg/kg/injection, schedule: Q01DX009 (ip), vehicle: saline with Tween-80 93 % of control | [10] 89 % of control | [11] 89 % of control

CCOC(=O)C(=O)C(C#N)C(=O)OCC (centres undefined)
inactive: dose: 12.5 mg/kg/injection, schedule: Q04DX003 (ip), vehicle: Klucel (hydroxypropylcellulose) (HPC) 100 % of control | dose: 25.0 mg/kg/injection, schedule: Q01DX009 (ip), vehicle: saline 98 % of control | dose: 25.0 mg/kg/injection, schedule: Q04DX003 (ip), vehicle: Klucel (hydroxypropylcellulose) (HPC) 100 % of control | dose: 50.0 mg/kg/injection, schedule: Q01DX009 (ip), vehicle: saline 98 % of control | dose: 50.0 mg/kg/injection, schedule: Q04DX003 (ip), vehicle: Klucel (hydroxypropylcellulose) (HPC) 91 % of control | dose: 100.0 mg/kg/injection, schedule: Q01DX009 (ip), vehicle: saline 95 % of control | [4] 97 % of control

COc1ccc(COc2ccc([N+](=O)[O-])cc2)cc1
inactive: dose: 50.0 mg/kg/injection, schedule: Q04DX002 (ip), vehicle: saline with Tween-80 101 % of control | dose: 100.0 mg/kg/injection, schedule: Q04DX002 (ip), vehicle: saline with Tween-80 104 % of control | dose: 200.0 mg/kg/injection, schedule: Q04DX002 (ip), vehicle: saline with Tween-80 97 % of control

CCN(CC)CCCC(C)Nc1cc(C)nc(/N=C(\N)Nc2ccc(Cl)c(Cl)c2)n1 (centres undefined)
inactive: dose: 25.0 mg/kg/injection, schedule: Q01DX009 (ip), vehicle: Klucel (hydroxypropylcellulose) (HPC) 96 % of control | dose: 50.0 mg/kg/injection, schedule: Q01DX009 (ip), vehicle: Klucel (hydroxypropylcellulose) (HPC) 94 % of control | [1] 92 % of control

CNc1ccc(C(=O)NC(CCC(=O)O)C(=O)O)cc1[N+](=O)[O-] (centres undefined)
inactive: dose: 100.0 mg/kg/injection, schedule: Q04DX003 (ip), vehicle: saline 105 % of control | dose: 200.0 mg/kg/injection, schedule: Q04DX003 (ip), vehicle: saline 94 % of control | dose: 400.0 mg/kg/injection, schedule: Q04DX003 (ip), vehicle: saline 103 % of control

O=C(/C=C/C=C/c1cccc([N+](=O)[O-])c1)CCl
inactive: [12] 101 % of control | [13] 95 % of control | [14] 103 % of control

O=C(O)c1ccc2c([N+](=O)[O-])cccc2n1
inactive: [7] 100 % of control | [4] 96 % of control | [8] 97 % of control | [5] 107 % of control | [6] 93 % of control

Cn1nc(NC(=O)C(F)(F)F)c2ncc(-c3ccc(Cl)cc3)nc21
inactive: [10] 102 % of control | dose: 100.0 mg/kg/injection, schedule: Q04DX003 (ip), vehicle: saline with Tween-80 100 % of control | [11] 97 % of control | dose: 200.0 mg/kg/injection, schedule: Q04DX003 (ip), vehicle: saline with Tween-80 87 % of control | dose: 400.0 mg/kg/injection, schedule: Q01DX009 (ip), vehicle: saline with Tween-80 97 % of control | dose: 400.0 mg/kg/injection, schedule: Q04DX003 (ip), vehicle: saline with Tween-80 96 % of control

Nc1cc(N)c(O)c(N)c1
inactive: dose: 0.5 mg/kg/injection, schedule: Q04DX003 (ip), vehicle: saline 103 % of control | dose: 1.0 mg/kg/injection, schedule: Q04DX003 (ip), vehicle: saline 105 % of control | dose: 1.25 mg/kg/injection, schedule: Q01DX009 (ip), vehicle: saline 95 % of control | dose: 2.0 mg/kg/injection, schedule: Q04DX003 (ip), vehicle: saline 111 % of control | dose: 2.5 mg/kg/injection, schedule: Q01DX009 (ip), vehicle: saline 90 % of control | dose: 5.0 mg/kg/injection, schedule: Q01DX009 (ip), vehicle: saline 97 % of control

C[N+](C)(C)CCCCCCCCCC[N+](C)(C)C
inactive: dose: 0.39 mg/kg/injection, schedule: Q04DX003 (ip), vehicle: saline with Tween-80 99 % of control | dose: 0.78 mg/kg/injection, schedule: Q04DX003 (ip), vehicle: saline with Tween-80 95 % of control | dose: 1.56 mg/kg/injection, schedule: Q04DX003 (ip), vehicle: saline with Tween-80 92 % of control

CC(C)(C)C1CCC([N+](=O)[O-])CC1 (centres undefined)
inactive: dose: 19.0 mg/kg/injection, schedule: Q01DX001 (ip), vehicle: other 103 % of control | dose: 19.0 mg/kg/injection, schedule: Q01DX009 (ip), vehicle: other 102 % of control | dose: 38.0 mg/kg/injection, schedule: Q01DX001 (ip), vehicle: other 97 % of control | dose: 38.0 mg/kg/injection, schedule: Q01DX009 (ip), vehicle: other 98 % of control | dose: 75.0 mg/kg/injection, schedule: Q01DX001 (ip), vehicle: other 95 % of control and 97 % of control

C/C(=N\NC(N)=O)C1CCC(c2ccccc2)CC1 (centres undefined)
inactive: [1] 103 % of control | [7] 90 % of control | [2] 96 % of control | [8] 86 % of control | [3] 92 % of control | [9] 91 % of control

CN(C)C(=O)Nc1cccc(OP(=O)(Oc2ccccc2)Oc2ccccc2)c1
inactive: [4] 91 % of control | [5] 94 % of control | [6] 98 % of control

COC1(OC)C2(Cl)CCC1(Cl)C(Cl)=C2Cl
inactive: dose: 100.0 mg/kg/injection, schedule: Q01DX001 (ip), vehicle: other 98 % of control | dose: 100.0 mg/kg/injection, schedule: Q01DX001 (ip), vehicle: saline with Tween-80 100 % of control | [7] 100 % of control | [4] 102 % of control | dose: 200.0 mg/kg/injection, schedule: Q01DX001 (ip), vehicle: other 98 % of control | dose: 200.0 mg/kg/injection, schedule: Q01DX001 (ip), vehicle: saline with Tween-80 100 % of control | [8] 103 % of control | [5] 94 % of control | dose: 400.0 mg/kg/injection, schedule: Q01DX001 (ip), vehicle: other 92 % of control | dose: 400.0 mg/kg/injection, schedule: Q01DX001 (ip), vehicle: saline with Tween-80 97 % of control | [9] 90 % of control | [6] 96 % of control

CC(C)=CCC(=O)Nc1ccc(Cl)nn1
inactive: [4] 86 % of control | [5] 91 % of control | [6] 100 % of control

CSc1ncnc2c1c(Br)cn2C1OC(CO)C(O)C1O (centres undefined)
inactive: [12] 100 % of control | [13] 108 % of control | [14] 114 % of control
